Data: US20090186835A1, “TREATMENT AND PROPHYLAXIS OF CANCER” (priority 2008, published 2009)
Like-named read-outs stand apart in the source and are kept apart here.

What was measured:
[1] = tested on: human pancreatic carcinoma cells (HPAC); test: CytoTox 96 LDH release cytotoxicity assay on HPAC cells
Experimental: (§1) The pancreatic cancer cell line, human pancreatic carcinoma cells (HPAC), was obtained from American Tissue and Cell Culture and cultured in complete media according to American Tissue and Cell Culture guidelines in T-75-cm^2 flasks in a 37° C. incubator with 5% CO2. HPAC cells were grown in Dulbecco's modified Eagle's medium with Ham F-12, 5% fetal bovine serum, 5% penicillin/streptomycin, 0.002 mg/mL insulin, 0.005 mg/mL transferrin, 40 ng/mL hydrocortisone, and 10 ng/mL epidermal growth factor.
(§2) 1×10^4 HPAC cells were aliquoted into each well of a 96-well plate and served as target cells. They were plated in phenol red dye-free RPMI 1640 (HyClone, Logan, Utah) complete medium (1 mM L-glutamine, 100 U/mL penicillin, 100 μg/mL streptomycin, 5% heat-inactivated fetal bovine serum; Gibco-BRL, Grand Island, N.Y.) and incubated with either natural mixture or sophorolipid derivative in increasing concentrations (0, 50, 100, 150, 200 mg; 100 μL final volume) at 37° C. with 5% CO2 overnight.
(§3) Assays were carried out using a CytoTox 96 Non-Radioactive Cytotoxicity Assay (Promega, Woodshole, Mass.), in accordance with manufacturer's directions. This assay measures lactate dehydrogenase (LDH) release by target cells, after conversion of a tetrazolium salt into a formazan red product. Cytotoxicity as measured by LDH release is considered an effective measure of determining cellular necrosis. Sophorolipid mixtures or derivatives (0, 50, 100, 150, 200 mg) were added to 96-well tissue culture plates (Fisher Scientific, Springfield, N.J.) containing HPAC cells (100 μL final volume) and incubated at 37° C., 5% CO2, for 20 h. To establish maximum lysis, lysing solution (9% v/v Triton-X 100; 10 μL) was added to representative culture wells containing HPAC cells. After incubation, supernatant (50 μL) was transferred to a fresh 96-well plate. Chromogenic substrate solution (50 μL) was added to each well while the plates were incubated in the dark at RT for 30 min, after which stop solution (1M NaAc; 50 μL) was added to each well to stop the reaction.
(§4) Cytotoxicity as measured by LDH release was determined by spectrophotometry at 450 nm (Bio-Tek Instruments Inc., Winooski, Vt.). […] Data shown represent the mean of at least three experiments±SE and are expressed as percentage cytotoxicity. Background controls were corrected for and consisted of target cell spontaneous (HPACs in media) and target cell maximum (HPACs in media with 10 μL lysis solution). Target cell maximum was corrected for by a volume control (media with 10 μL lysis solution). Each experiment was corrected for by a sophorolipid control (sophorolipid in media). These controls were incubated on the same 96-well plate as experimental assays. Percent (%) cytotoxicity was calculated according to the general equation below:
(§5) Values for results were expressed as means±SE obtained from multiple determinations in three or more separate experiments. P values computed were two-tailed, and P<0.05 was considered statistically significant (Student's t-test, analysis of variance with Tukey post-hoc correction; SPSS version 10.0, Chicago, Ill.).

[2] = tested on: Human pancreatic carcinoma (HPAC) cells; test: Apoptosis (annexin) in HPAC cells; type: cell-based; settings: 0.5-2.0 mg/ml, 24 hours
Experimental: The sophorolipid mixtures of the present invention have anti cancer properties, which were confirmed by experiment and observations. […] Controls consisted of cells treated with media or vehicle alone and sophorolipids treatment of peripheral blood mononuclear cells (PBMC). AS mediated toxicity was inversely proportional with dose (LSD—40.3% at 0.5 mg/ml, 3.4% at 2.0 mg/ml, AS 49% at 0.5 mg/ml, 0% at 2.0 mg/ml).

[3] = tested on: human pancreatic carcinoma cells (HPAC)
Experimental: as §1, §2, §3, §4, §5

Compound | percent cytotoxicity (LDH release) ([1]; HPAC cells cultured with 100 μg of sophorolipid natural mixture or derivative, FIG. 2) | percent cytotoxicity (LDH release) ([1]; HPAC cells, 0.5 mg/mL) | percent cytotoxicity (LDH release) ([1]; HPAC cells, 2.0 mg/mL) | dose dependence of the cytotoxic response ([1]; HPAC cells, 0.5-2.0 mg/ml, in words) | apoptosis (annexin) [2] | dose dependence of the cytotoxic response [3]
CC(=O)OC[C@H]1O[C@H]2OC(C)CCCCCC/C=C\CCCCCCCC(=O)O[C@H]3[C@H](O)[C@@H](O)[C@H](O[C@@H]2[C@@H](O)[C@@H]1O)O[C@@H]3COC(C)=O (stereo partly drawn) [LSD, lactonic sophorolipid diacetate] | 26.2% | 40.3% | 3.4% | inversely proportional to dose |  | 
acidic sophorolipid [AS] |  |  |  |  | Dose dependant apoptosis could be observed | inversely proportional to dose
